Measured values from US10072005B2, “4-azaindole derivatives” (EISAI R&D MANAGEMENT CO., LTD., priority 2013, dated 2018).

How the values were obtained:
mAChR M2 = mAChR M2 (Homo sapiens (Human), UniProt P08172); assay: In vitro cellular calcium flux assay, PAM, NAM and agonist modes, mAChR M2; assay type: cell-based
Protocol: (§1) Baby hamster kidney cells stably expressing human or rat mAChR M1 to M5 were utilised for primary and selectivity profiling activities. mAChR M2 and M4 cell lines also stably expressed the chimeric Gαqi5 G-protein.
(§2) Human mAChR M1, M3, M5 and rat M1 cells were grown in low glucose Dulbecco's Modified Eagle's Medium (DMEM) medium plus heat inactivated 10% fetal bovine serum (HI FBS) and 500 μg/ml hygromycin B^1. Human mAChR M2 and M4 cells were maintained as above with^2 the addition of 500 μg/ml G418 to the media. Cells were maintained in culture at 37° C./5% CO2 and passaged twice weekly by treatment with 0.05% Trypsin/EDTA detachment solution, centrifugation (200 g, 5 min) and re-suspension in fresh media. Following cell expansion, cells were cryopreserved at −80° C. by treatment with 0.05% Trypsin/EDTA detachment solution, centrifugation (200 g, 5 min) and re-suspension of the pellet in freezing media (90% HI FBS/10% DMSO^3) at 15E6 cells/ml^4.
(§3) Prior to assaying, cells were prepared by thawing at 37° C. in a water bath, centrifugation (200 g, 5 min) and re-suspension of the pellet in fresh media. 15000 cells per well were seeded in black, clear bottomed 384-well Greiner Bio-One plates in plating medium (DMEM/10% HI FBS) and incubated overnight at 37 C/5% CO2.
(§4) On the day of the assay, media was removed from each well and replaced with 50 μl^5 assay buffer (HBSS with 20 mM HEPES and 2.5 mM Probenecid) containing the calcium indicator, Calcium 4 (Molecular Devices). Cells were then incubated at 37° C./5% CO2 for 30 min and at room temperature.
(§5) Compound preparation was carried out by generation of 11-point, 1 in 3 serial dilution concentration response curves in 100% DMSO. Compound was then diluted 1 in 65^6 with assay buffer (HBSS with 20 mM HEPES and 2.5 mM Probenecid) prior to the addition of 10 ul^7 to the cells using a Tetra fluorometric imaging plate reader (Molecular Devices)^8. Compound driven increases in intracellular calcium flux was measured as an increase in fluorescence (494Ex, 516Em)^9.
(§6) Positive allosteric modulator pEC50 values and antagonist pIC50 values for each compound were then determined. […] The points of modification and the alternate reagents, concentrations or equipment employed in these examples were: ^1200 μg/ml hygromycin B; ^2G418 not added; ^3CELLBANKER 1; ^410E6; ^5 40 μl; ^6 1 in 99; ^7 20 μl; ^8FDSS6000 (Hamamatsu Photonics); ^9(480Ex, 540Em); ^10Spotfire (TIBCO).
(§7) Certain compounds were tested in PAM, NAM and agonist modes against mAChR M2, M3, M4 and M5.

mAChR M3 = mAChR M3 (Homo sapiens (Human), UniProt P20309); assay: In vitro cellular calcium flux assay, PAM, NAM and agonist modes, mAChR M3; assay type: cell-based
Protocol: as §1, §2, §3, §4, §5, §6, §7

Male Lister Hooded rats = assay: Novel Object Recognition test; assay type: in vivo; conditions: rat, 24 h delay
Protocol: The Novel Object Recognition test (NOR) is based on the greater spontaneous exploration of a novel object, compared with a familiar object, observed in rodents (Behav. Brain Res., 1988, 31(1), 47-59). […] Therefore, it is considered to be analogous to recognition memory tests used in human clinical testing. Male Lister Hooded rats were assessed for object recognition in a test apparatus comprising of a perspex test arena housed within a sound attenuating chamber. Video images of behaviour were captured by digital camera and recorded to a computer. Rats were habituated to the test arena on four occasions prior to testing. Habituation sessions replicated the test day sequence exactly with the exception of object presentation. On test days, each rat was placed into the test arena and 3 minutes later the rat was presented with two identical objects (plastic shapes). The time spent actively exploring the objects during a 3-minute test period (T1) was recorded. Following T1 rats were returned to home cages. After 24 hours each rat was again placed in the test arena and 3 minutes later was presented with one of the now familiar objects and a novel object, and again the time spent actively exploring the objects during a 3-minute test period (T2) was recorded. The presentation order and position of objects (left/right) was randomised within groups to prevent bias from order or place preference. Objects were cleaned with 70% ethanol solution between trials to remove any olfactory/taste cues. Compounds were administered by oral gavage at an appropriate pre-treatment time prior to T1 and T2 (n=12) at dosage ranges between 0.03 and 3 mg/kg. In some experiments the 5-HT6 receptor antagonist N-(3,5-dichloro-2-methoxyphenyl)-4-methoxy-3-(piperazin-1-yl)benzenesulfonamide (CAS 402713-80-8) (10 mg/kg p.o.; 4 h pre-treatment time) was included as a positive control. Vehicle controls (1% methylcellulose in water) were included for comparison in each study. Results are expressed as the d2 index (difference in time spent exploring novel and familiar objects/total object exploration in T2).

male Long-Evans rats = assay: Novel Object Recognition Test in Scopolamine-Induced Cognitive Deficit Condition; assay type: in vivo; conditions: rat
Protocol: For 2 days before starting the test, 6-week old male Long-Evans rats were acclimated to experimental operations such as administration and a test device (that is, a black or gray plastic cage with a width of 40 cm, a depth of 30 cm and a height of 45 cm). Each test compound was dissolved in a 0.5% methylcellulose in water to be orally administered at dosage ranges between 0.01 and 0.1 mg/kg. Thirty minutes after the test compound administration, scopolamine hydrobromide dissolved in a saline was intraperitoneally administered at a 0.7 mg/kg dose, so as to induce cognitive impairment. After another 30 minutes, each rat was acclimated in the test device for 3 minutes, and thereafter, two blocks in the same shape were put in the test device as acquisition trial, and exploring time for each block was measured for 5 minutes. Two hours after the acquisition trial, the rat was acclimated in the test device for 3 minutes, and thereafter, the same block as those used in the acquisition trial and a new block in a different shape were put in the cage for retention trial. The exploring time for each block was measured for 3 minutes, and a ratio of the exploring time for the newly used block to the sum of the exploring times for the respective blocks was calculated as a discrimination index (novel object exploration time/total object exploration time in retention trial×100). […]
Each discrimination index was shown as an average and a standard error. The statistical significance between the vehicle group and the scopolamine alone group was analyzed by the independent t-test. The statistical significance between the scopolamine alone group and each sample group was analyzed by one-way analysis of variance and then by Dunnett's multiple comparison test. […]

Sequence of mAChR M2 (P08172 whole entry): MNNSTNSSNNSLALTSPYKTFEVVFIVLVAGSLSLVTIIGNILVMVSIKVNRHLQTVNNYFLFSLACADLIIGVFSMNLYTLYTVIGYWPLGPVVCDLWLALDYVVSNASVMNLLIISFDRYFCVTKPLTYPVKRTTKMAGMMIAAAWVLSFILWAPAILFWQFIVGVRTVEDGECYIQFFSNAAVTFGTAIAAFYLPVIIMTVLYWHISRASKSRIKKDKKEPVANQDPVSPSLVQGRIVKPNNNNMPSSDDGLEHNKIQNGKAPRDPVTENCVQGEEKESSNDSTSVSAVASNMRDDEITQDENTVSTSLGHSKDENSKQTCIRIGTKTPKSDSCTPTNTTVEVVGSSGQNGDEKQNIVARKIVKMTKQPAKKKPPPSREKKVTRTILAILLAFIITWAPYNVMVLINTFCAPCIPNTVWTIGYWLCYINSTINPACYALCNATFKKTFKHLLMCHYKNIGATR
Sequence of mAChR M3 (P20309 whole entry, looked up): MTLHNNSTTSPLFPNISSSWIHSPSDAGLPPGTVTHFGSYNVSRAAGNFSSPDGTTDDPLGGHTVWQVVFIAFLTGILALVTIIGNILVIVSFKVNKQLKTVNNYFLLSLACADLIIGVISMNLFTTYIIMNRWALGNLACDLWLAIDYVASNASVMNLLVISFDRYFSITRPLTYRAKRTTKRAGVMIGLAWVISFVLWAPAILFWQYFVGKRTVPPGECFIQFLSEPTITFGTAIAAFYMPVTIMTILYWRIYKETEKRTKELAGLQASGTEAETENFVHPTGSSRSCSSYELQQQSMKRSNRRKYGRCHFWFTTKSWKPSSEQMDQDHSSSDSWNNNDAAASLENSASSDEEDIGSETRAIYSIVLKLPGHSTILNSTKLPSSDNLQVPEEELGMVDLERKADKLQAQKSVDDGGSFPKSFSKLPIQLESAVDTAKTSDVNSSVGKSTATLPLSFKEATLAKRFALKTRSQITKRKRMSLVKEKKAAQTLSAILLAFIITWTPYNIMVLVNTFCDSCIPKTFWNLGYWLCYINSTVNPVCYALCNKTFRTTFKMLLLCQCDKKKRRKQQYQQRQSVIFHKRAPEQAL

O=C(N[C@H]1CCCC[C@@H]1O)c1cn(Cc2ccc(F)cc2)c2cccnc12 [Example 5, 1-(4-Fluorobenzyl)-N-((1S,2S)-2-hydroxycyclohexyl)-1H-pyrrolo[3,2-b]pyridine-3-carboxamide] was tested. Which EC50 (mAChR M2) did it give?
The EC50 was > 10 µM.

What about the EC50 (mAChR M3) of the same compound?
The EC50 was > 10 µM.

And the “d2 index [mean ± SEM]” value (Male Lister Hooded rats; 0.03 mg/kg p.o.)?
Its value is “[0.04 ± 0.06]”.

What about the “d2 index [mean ± SEM]” value (Male Lister Hooded rats; 0.1 mg/kg p.o.) of the same compound?
The value was “[0.20 ± 0.05]**”.

And the “d2 index [mean ± SEM]” value (Male Lister Hooded rats; 0.3 mg/kg p.o.)?
Its value is “[0.28 ± 0.05]***”.

And the “discrimination index [mean ± SEM]” value (male Long-Evans rats; Scopolamine/0.01 mg/kg p.o.)?
The value was “[50.5 ± 4.3]”.

What about the “discrimination index [mean ± SEM]” value (male Long-Evans rats; Scopolamine/0.03 mg/kg p.o.) of the same compound?
Its value is “[61.7 ± 2.5]”.

And the “discrimination index [mean ± SEM]” value (male Long-Evans rats; Scopolamine/0.1 mg/kg p.o.)?
Its value is “[72.9 ± 2.6]###”.
